Measurements: article PMC6158189, “A pharmacological probe identifies cystathionine β-synthase as a new negative regulator for ferroptosis” (Cell Death & Disease, 2018)
Entries after “also recorded” stand apart in the source; their conditions may differ.

What was measured:
hCBS Y223F = target: T1, hCBS Y223F (Homo sapiens, UniProt P35520, Y223F); test: purified hCBS mutant enzyme assay; assay type: biochemical
T1 construct: hCBS-413 (a C-terminal truncated hCBS 1–413); GST (N); made in house; host or cells: E. coli BL21
T1 sequence (P35520 1-413 Y223F): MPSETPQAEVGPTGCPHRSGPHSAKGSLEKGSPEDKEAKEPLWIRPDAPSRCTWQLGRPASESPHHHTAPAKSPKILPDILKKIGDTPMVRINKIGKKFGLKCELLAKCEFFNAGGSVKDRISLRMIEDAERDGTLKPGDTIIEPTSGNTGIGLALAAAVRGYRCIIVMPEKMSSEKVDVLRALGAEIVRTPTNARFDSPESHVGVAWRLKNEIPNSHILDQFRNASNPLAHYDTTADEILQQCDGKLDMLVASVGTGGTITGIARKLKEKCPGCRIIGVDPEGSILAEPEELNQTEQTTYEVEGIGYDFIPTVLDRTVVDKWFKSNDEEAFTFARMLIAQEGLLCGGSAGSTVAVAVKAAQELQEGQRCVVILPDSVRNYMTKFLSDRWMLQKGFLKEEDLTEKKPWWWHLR
Experimental: (§1) The IC50 values of CH004 for hCBS-413, hCBS-413 mutants, hCBS-FL, hCSE or hDDC were determined according to the standard assay conditions otherwise indicated.
(§2) Table S2. Inhibitory effects of CH004 on hCBS WT and mutants.

hCBS S147A = target: T2, hCBS S147A (Homo sapiens, UniProt P35520, S147A); test: purified hCBS mutant enzyme assay; assay type: biochemical
T2 construct: hCBS-413 (a C-terminal truncated hCBS 1–413); GST (N); made in house; host or cells: E. coli BL21
T2 sequence (P35520 1-413 S147A): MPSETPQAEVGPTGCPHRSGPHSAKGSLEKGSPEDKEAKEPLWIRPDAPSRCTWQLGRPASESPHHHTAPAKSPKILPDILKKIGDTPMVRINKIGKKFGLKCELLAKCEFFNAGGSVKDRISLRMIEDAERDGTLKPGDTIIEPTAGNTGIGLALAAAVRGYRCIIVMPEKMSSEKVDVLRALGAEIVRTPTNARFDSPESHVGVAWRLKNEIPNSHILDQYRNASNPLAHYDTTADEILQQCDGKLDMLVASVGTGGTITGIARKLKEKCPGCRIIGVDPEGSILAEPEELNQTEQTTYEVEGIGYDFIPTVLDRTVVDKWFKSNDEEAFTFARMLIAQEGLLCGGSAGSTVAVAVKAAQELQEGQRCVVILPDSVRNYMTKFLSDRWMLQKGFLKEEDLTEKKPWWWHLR
Experimental: as §1, §2

hCBS T146A = target: T3, hCBS T146A (Homo sapiens, UniProt P35520, T146A); test: purified hCBS mutant enzyme assay; assay type: biochemical
T3 construct: hCBS-413 (a C-terminal truncated hCBS 1–413); GST (N); made in house; host or cells: E. coli BL21
T3 sequence (P35520 1-413 T146A): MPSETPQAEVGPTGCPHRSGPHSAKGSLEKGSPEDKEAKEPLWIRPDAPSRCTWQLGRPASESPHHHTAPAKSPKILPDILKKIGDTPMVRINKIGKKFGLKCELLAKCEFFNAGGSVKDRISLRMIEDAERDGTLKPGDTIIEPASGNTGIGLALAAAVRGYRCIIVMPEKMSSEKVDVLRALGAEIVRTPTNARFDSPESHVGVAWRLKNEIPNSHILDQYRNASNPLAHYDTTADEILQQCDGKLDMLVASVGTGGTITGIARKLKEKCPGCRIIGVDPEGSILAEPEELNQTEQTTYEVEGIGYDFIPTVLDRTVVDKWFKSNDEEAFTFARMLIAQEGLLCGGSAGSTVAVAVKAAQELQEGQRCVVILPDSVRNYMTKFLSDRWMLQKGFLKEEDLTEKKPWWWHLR
Experimental: as §1, §2

HepG2 cells [1] = test: lipid ROS (BODIPY 581/591 C11, flow cytometry); assay type: cell-based, human; details: 24 h, HepG2
Experimental: To detect lipid peroxidation upon treatment with CH004, HepG2 cells or mouse embryonic fibroblasts (MEF) were seeded in 12-well plates with ~ 1.8 × 10^5 cells per well for 24 h. After treatment with the inhibitor for another 24 h, cells were stained with BODIPY® 581/591 C11 (Invitrogen) for 1 h at a final concentration of 2 μM at 37 °C[57]. The cells were then resuspended in an appropriate amount of PBS after being washed once with PBS. Lipid peroxidation, i.e., lipid ROS, was analyzed by detection of the fluorescence using an LSR Fortessa flow cytometer. The data were recorded at 530/30 nm (green fluorescent) and 670/30 nm (red fluorescent) wavelengths after excitation at 488 nm. A minimum of 20000 events was used for the analysis. All the experiments were independently repeated twice in triplicate.
Figure S15. The mode of actions for CH004 in cells. […] Indicated HEK293T stable cell lines were treated with CH004 at a concentration of 10 µM for 24 h, and the cell viability was then measured using the CellTiter96® Aqueous One Solution Cell Proliferation Assay (Promega). Means ± SDs (n=3). (B-C) CH004 or erastin triggers ferroptosis in mouse embryonic fibroblasts (MEF). WT MEF cells were treated with CH004 or erastin at indicated concentrations in the presence or the absence of 500 µM DFO for 24 h before measuring the lipid ROS with 2 μM BODIPY® 581/591 C11 (Materials and methods). […] Erastin at micromolar concentrations were incubated with HepG2 cells for 24 h before measuring the lipid ROS (see above and Materials and methods). […] Means ± SDs (n=3). […] CH004 or erastin at a concentration of 20 µM was incubated with HepG2 cells for 48 h or 72 h in the presence or the absence of 100 µM DFO. The cell viability was accordingly quantified using the CellTiter96® Aqueous One Solution Cell Proliferation Assay (Promega) and the results were shown as percentages of DMSO (control, 100%). Means ± SDs (n=3). All the experiments were independently repeated at least twice and one representative result is present. Table S1 The inhibitory effects of CH004 on purified hCBS, hCSE and hDDC.

HepG2 cells [2] = test: cellular cystathionine by LC/ESI-MS/MS; assay type: cell-based, human; details: 8 h, 100 μM Hcys and 100 μM Ser
Experimental: The effect of CH004 on the level of CTH in HepG2 cells was determined by a liquid chromatography-tandem mass spectrometry (LC/ESI-MS/MS). We followed a condition, which was previously established with LC/ESI-MS/MS[56], for quantification of CTH. […] We selected the 223.1 → 88.1 transition for the quantitative method. Briefly, after the incubation with the compounds for 8 h in the presence of 100 μM Hcys and 100 μM Ser, the HepG2 cells were lysed with liquid nitrogen. 10 μl supernatant was injected to the Ultra Performance Liquid Chromatographic system on a Zorbax XDB C18 reverse phase column (4.6 × 150 mm, temperature-controlled at 10 °C), and eluted isogradiently with a solution mixed from acetonitrile (in the presence of 0.1% formic acid) and water (0.1% formic acid) (2:98, v/v) at a flow rate of 0.4 ml/min in a diode array detector (Agilent G4212A). The Agilent 6470 UHPLC-QqQ/MS system composes of a chomatographic system (Agilent 1260 Infinity) and a Triple Quad mass spectrometer fitted with an ESI source. Data was acquired in the MRM mode using Agilent MassHunter Workstation Data Acquisition Software (revision B.04).
Figure S14. […] All images are representative of three independent experiments. […] Means ± SDs (n=2).

[3] = 150 nM CBS, 4 mM Hcys, 4 mM Cys, Tris-HCl pH 8.6

Cn1nc(Cc2ccccc2)nc2c(=O)n(C)c(=O)nc1-2 [CH004, 3-benzyl-1,6-dimethylpyrimido[5,4-e][1,2,4]triazine-5,7(1H,6H)-dione]
IC50 fold to WT, Y223F (hCBS Y223F): 3.5
IC50 (hCBS Y223F; [3]): 4.2 ± 1 µM
IC50 fold to WT, S147A (hCBS S147A): 4.9
IC50 (hCBS S147A; [3]): 5.9 ± 0.8 µM
IC50 fold to WT, T146A (hCBS T146A): 4.2
IC50 (hCBS T146A; 2 µM CBS, 4 mM Hcys, 4 mM Cys, Tris-HCl pH 8.6): 5 ± 1.5 µM
increase of lipid ROS (HepG2 cells [1]; 10 μM): ~ 250%
lipid peroxidation (lipid ROS), dose dependence (HepG2 cells [1]): dose-dependently increased
level of cystathionine (CTH) (HepG2 cells [2]): dose-dependently inhibits; also recorded: largely reduced
